Seven compounds from patent US8772265B2, “Water soluble curcumin compositions for use in anti-cancer and anti-inflammatory therapy” (Universite Libre de Bruxelles, priority 2008, dated 2014) can be followed below.

Data set [1] has as its system SC-VII mouse head and neck cancer cells. The data set can be described thus: SC-VII mouse head and neck orthotopic cancer model, survival. In kind it is in vivo. Particulars: IP, NDS27 20 mg/kg 3 times per day, 5 days per week, 3 weeks, cisplatin 5 mg/kg 1 time per week, control vehicle. The procedure: To test the in vivo anti-cancer activity of the compound according to the invention, we made use of the SC-VII mouse head and neck orthotopic cancer model. SC-VII mouse head and neck cancer cells were cultivated in conventional culture medium containing supplementation in foetal calf serum and antibiotics (penicillin/streptomycin and gentamycin). 500 000 cancer cells were grafted in a serum free culture medium (50 μl) into the floor of the mouth of each mouse. 5 days after the graft, the 44 animals were divided into four groups of 11 mice. The treatments were as follows: • Group 1: mice treated with the vehicle alone (HP-beta-CD—L-Lysine solution) • Group 2: mice treated with cisplatin administered IP at the dosis of 5 mg/kg, 1 time per week during 3 weeks • Group 3: mice treated IP with the NDS27 compound according to the invention administered 3 times per day, 5 days per week during 3 weeks at the doses of 20 mg/kg • Group 4: mice treated with a combination of both treatments described for groups 2 and 3.
Mice were sacrificed when they lost 20% of their weight or when tumour reached 500 mm^2. Survival of the animals was followed and is illustrated in FIG. 8.

Data set [2] is described as follows: Influence of different cyclodextrins on curcumin solubility. Particulars: FIGS. 11a and 11b. In kind it is physicochemical.
A short description of data set [3]: Solubilities in water (20° C.). In kind it is physicochemical. The text has this: The compound according to the invention allows therefore to increase the solubility of curcumin derivatives in aqueous solutions which in turn enables IV administrations and/or increases their bioavailability. The table below presents the solubilities of the various intermediates.

The subject of data set [4] is PC3. The data set can be described thus: MTT test, overall cell growth, PC3. In kind it is cell-based, human. As to conditions: read-out: IC50 PC3. The protocol:
(§1) MTT tests were performed in order to rapidly, i.e. within 5 days, measure the effect of compounds of this invention on the overall cell growth. […] The amount of formazan obtained at the end of the experiment, measured by means of a spectrophotometer, is directly proportional to the number of living cells. Optical density determination thus enabled a quantitative measurement of the effect of the investigated compounds as compared to the control condition (untreated cells) and/or to other reference compounds. Six human cancer cell lines described in Table 5 were used in the following MTT tests. These cancer cell lines cover six histological cancer types, being prostate, glioma, pancreas, colon, lung, and breast cancers. To perform the assay, cells were allowed to grow in 96-well micro-wells with a flat bottom with an amount of 100 μl of cell suspension per well with 1,000 to 4,000 cells/well depending on the cell type used. Each cell line was seeded in its appropriate culture medium. […] Each experiment was performed in sextaplicates. […] The micro-wells were subsequently incubated during 3 hours at 37° C. and centrifuged at 400 g during 10 minutes. MTT was removed and formazan crystals formed were dissolved in 100 μl DMSO. The micro-wells were shaken for 5 minutes and read on a spectrophotometer at wavelengths of 570 nm (maximal formazan absorbance). For each experimental condition, the mean optical density was calculated, allowing the determination of the percentage of remaining living cells in comparison to the control.

The test system of data set [5] is U-373MG. The data set can be described thus: MTT test, overall cell growth, U-373MG. In kind it is cell-based, human. Particulars: read-out: IC50 U-373MG. The protocol: as §1
Data set [6] relates to LoVo. The data set can be described thus: MTT test, overall cell growth, LoVo. In kind it is cell-based, human. Particulars: read-out: IC50 LoVo. The protocol:
as §1

The test system of data set [7] is A549. The data set can be described thus: MTT test, overall cell growth, A549. Particulars: read-out: IC50 A549. It counts as cell-based, human. The procedure: as §1
Data set [8] deals with BxPC3. The data set can be described thus: MTT test, overall cell growth, BxPC3. In kind it is cell-based, human. Particulars: read-out: IC50 BxPC3. The protocol: as §1
The subject of data set [9] is MCF-7. The experiment in a line: MTT test, overall cell growth, MCF-7. It counts as cell-based, human. Particulars: read-out: IC50 MCF-7. The procedure:
as §1

Data set [10] has as its system U-373 MG. The data set can be described thus: Cellular imaging (phase-contrast videomicroscopy), U-373 MG. It counts as cell-based, human. Particulars: 10 μM, 72 h, global growth ratio. The protocol:
(§2) Cellular imaging relied on the use of computer-assisted phase-contrast microscopy making possible to film the behavior of living cells in culture dishes for several days. […] The experiment was conducted in quadruplicates. The behaviour of the cells, in terms of morphology, growth/death and migration were thus investigated. The analysis of the films was performed by two operators, working independently. The effect on cell migration was characterized as +++ (high effect: cell migration of most cells is drastically altered for most of the duration of the film), ++ (medium effect: compound altering cell migration of an important proportion of the cells although less drastically), + (low effect: compound affecting cell migration of a small part of the cell population, or only for a limited part of the 72 h incubation), - (no effect: as compared to the control conditions, no difference is observed). The effect on cell morphology was characterized by the same way. The effect on the overall growth was measured by counting the number of cells on the first (0 h) and the last image (72 h) of each film. The global growth ratio (GGR) was then deduced by dividing the number of cells on the last image by the number of cells on the first image. The ratio […], was further calculated thereby obtaining a value that describes the effect of compounds of the present invention on the overall cell growth.

Data set [11] in a line: physchem. Particulars: aqueous with cosolvent or surfactant or cyclodextrin.
For data set [12], the system named is isolated neutrophils stimulated by phorbol myristate acetate (PMA). The experiment in a line: ROS production by PMA-stimulated isolated neutrophils (chemiluminescence). It counts as cell-based. Particulars: FIG. 16. The protocol: (§3) The ROS production and the release of MPO by activated neutrophils were measured by chemiluminescence and ELISA techniques, respectively (Franck et al., 2008, Physiol. Res. 57(4):577-87). The activity of purified MPO was measured by using an original method called […] (specific immune extraction followed by enzymatic detection) allowing the study of drug interaction with the enzyme without interferences of the medium (Franck et al., 2006, J Vet Diagn Invest, 18(4):326-34).

Data set [13] relates to PC3. The experiment in a line: Cellular imaging (phase-contrast videomicroscopy), PC3. It counts as cell-based, human. The arrangement: key to effect on cell morphology / effect on cell migration: +++: high effect: cell migration of most cells is drastically altered for most of the duration of the film; ++: medium effect: compound altering cell migration of an important proportion of the cells although less drastically; +: low effect: compound affecting cell migration of a small part of the cell population, or only for a limited part of the 72 h incubation; −: no effect: as compared to the control conditions, no difference is observed. As to conditions: PC3, 10 μM; for GGRtreated/GGRcontrol: 72 h, global growth ratio; for effect on cell morphology: characterized by the same way as migration. The procedure: as §2

For data set [14], the system named is purified MPO. The data set can be described thus: Activity of purified MPO (SIEFED). In kind it is biochemical. Particulars: FIG. 17. The procedure: as §3
Data set [15] has as its system isolated neutrophils stimulated by phorbol myristate acetate (PMA). The data set can be described thus: MPO release by activated neutrophils (ELISA). As to conditions: FIG. 18. It counts as cell-based. The procedure:
as §3

≈ marks a conversion by molar mass, not a printed value. Where two headings read alike, the source gives them in different places.

On to `N.N.[Cl][Pt][Cl]` [cisplatin], for which the “T/C index (ratio of median survival of treated mice to control group)” value in data set [1] was found to be 163%.
Consider `CC(O)COC[C@H]1O[C@@H]2O[C@H]3[C@H](O)[C@@H](O)[C@@H](O[C@H]4[C@H](O)[C@@H](O)[C@@H](O[C@H]5[C@H](O)[C@@H](O)[C@@H](O[C@H]6[C@H](O)[C@@H](O)[C@@H](O[C@H]7[C@H](O)[C@@H](O)[C@@H](O[C@H]8[C@H](O)[C@@H](O)[C@@H](O[C@H]1[C@H](O)[C@H]2O)O[C@@H]8COCC(C)O)O[C@@H]7COCC(C)O)O[C@@H]6COCC(C)O)O[C@@H]5COCC(C)O)O[C@@H]4COCC(C)O)O[C@@H]3COCC(C)O` (stereo partly drawn) [HP-beta-CD, hydroxypropyl-beta-cyclodextrin], for which the “effect of the cyclodextrin on curcumin solubility” value in data set [2] is recorded as “clearly increase the solubility of curcumin”. Besides, in [3], the solubility stood at 500 mg/mL (≈ 324 mM).
Consider `COc1cc(CCC(=O)CC(=O)CCc2ccc(O)c(OC)c2)ccc1O` [Tetrahydrocurcumin, tetrahydrocurcumin], for which the half-maximal inhibitory concentration (IC50) in data set [4] (Homo sapiens, PC-3, 72 h) was more than 10 µM; in data set [5] (Homo sapiens, U373 MG, 72 h), more than 10 µM; in data set [6] (Homo sapiens, LoVo, 72 h), more than 10 µM; in [7] (Homo sapiens, A549, 72 h) it was more than 10 µM; in data set [8] (Homo sapiens, BXPC-3, 72 h) it was more than 10 µM; in data set [9] (Homo sapiens, MCF7, 72 h), more than 10 µM.
Turning to `COc1cc(/C=C/C(=O)CC(=O)/C=C/c2ccc(O)c(OC)c2)ccc1O` [curcumin], the half-inhibitory concentration (IC50) is more than 10 µM in data set [4] (Homo sapiens, PC-3, MTT, 72 hours, prostate cancer cell line); 8.1 µM in data set [5] (Homo sapiens, U373 MG, MTT, 72 hours, glioma cell line); 9.3 µM in [6] (Homo sapiens, LoVo, MTT, 72 hours, colon cancer cell line); more than 10 µM in [7] (Homo sapiens, A549, MTT, 72 hours, lung cancer cell line); 9.5 µM in data set [8] (Homo sapiens, BXPC-3, MTT, 72 hours, pancreas cancer cell line); more than 10 µM in [9] (Homo sapiens, MCF7, MTT, 72 hours, breast cancer cell line). In addition, the GGRtreated/GGRcontrol in [10] amounted to 0.2; in [13] it was 0.5. For the same compound, the solubility in [11] was not above 100 mM; in [3] (Water (20° C.), read-out: solubility), approximately 0.0003 mg/mL (≈ 0.000814 mM). Also, the “inhibitory effect on ROS production / release” value in data set [12] is given as “dose-dependent inhibitory effects”. The “effect on cell morphology” value in [13] (filmed 72 h) was “+”. Also, the “inhibitory effect on purified MPO activity” value in data set [14] is “dose-dependent inhibitory effects”. The “effect on MPO release by activated neutrophils” value in data set [15] is “dose-dependent inhibitory effects”.
For the compound Curcumin Lysinate, the IC50 in data set [4] (MTT, 72 hours, prostate cancer cell line) was more than 10 µM; in [5] (MTT, 72 hours, glioma cell line) it was 10 µM; in data set [6] (MTT, 72 hours, colon cancer cell line), more than 10 µM; in data set [7] (MTT, 72 hours, lung cancer cell line), more than 10 µM; in [8] (MTT, 72 hours, pancreas cancer cell line), more than 10 µM; in data set [9] (MTT, 72 hours, breast cancer cell line), more than 10 µM. For the same compound, the GGRtreated/GGRcontrol in [10] is 0.2; in [13], 0.4. For the same compound, the “inhibitory effect on ROS production / release” value in [12] was “dose-dependent inhibitory effects”. Besides, the “effect on cell migration” value in data set [13] (filmed 72 h) is on record as “++”. Also, in data set [13] (filmed 72 h), the “effect on cell morphology” value was “++”. Besides, the “inhibitory effect on purified MPO activity” value in data set [14] is given as “dose-dependent inhibitory effects”. The “effect on MPO release by activated neutrophils” value in data set [15] is “dose-dependent inhibitory effects”.
In data set [3], “hydroxypropyl-beta-cyclodextrin complex of curcumin lysinate [NDS27]” registered a solubility of 10 mg/mL.
Regarding `NCCCC[C@H](N)C(=O)O` [Lysine], in data set [3] (20 °C, water), the solubility is 640 mg/mL (≈ 4380 mM).
